{"source": "ChEMBL document CHEMBL5465560", "about": "“Selectivity Literature for EUbOPEN Chemogenomic Library” (2024)", "key": {"[1]": {"target": "OATP1B1 (SLCO1B1) (Homo sapiens, UniProt Q9Y6L6)", "sequence (Q9Y6L6 whole entry)": "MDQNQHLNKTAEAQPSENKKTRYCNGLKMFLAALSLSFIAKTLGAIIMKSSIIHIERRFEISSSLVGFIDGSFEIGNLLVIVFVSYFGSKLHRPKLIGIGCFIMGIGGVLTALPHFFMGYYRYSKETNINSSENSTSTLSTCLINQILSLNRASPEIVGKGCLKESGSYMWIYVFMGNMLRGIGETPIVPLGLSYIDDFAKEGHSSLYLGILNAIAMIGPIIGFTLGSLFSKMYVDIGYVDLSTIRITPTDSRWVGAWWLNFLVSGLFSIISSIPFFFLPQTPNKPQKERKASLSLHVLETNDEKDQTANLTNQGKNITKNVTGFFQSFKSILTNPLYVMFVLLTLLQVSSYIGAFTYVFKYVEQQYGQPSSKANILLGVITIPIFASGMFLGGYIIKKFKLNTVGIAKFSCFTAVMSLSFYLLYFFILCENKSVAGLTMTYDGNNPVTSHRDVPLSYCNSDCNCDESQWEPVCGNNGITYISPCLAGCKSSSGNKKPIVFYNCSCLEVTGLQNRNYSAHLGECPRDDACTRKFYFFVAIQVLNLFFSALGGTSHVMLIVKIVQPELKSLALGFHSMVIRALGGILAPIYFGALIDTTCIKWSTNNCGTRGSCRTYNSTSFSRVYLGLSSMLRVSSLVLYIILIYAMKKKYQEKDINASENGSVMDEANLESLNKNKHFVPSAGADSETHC", "assay": "Selectivity interaction (Panel of kinases, GPCRs, ion channels and transporters (enzymatic assay)) EUB0000266bCl SLCO1B1", "settings": "not told"}, "[2]": {"target": "Serine/threonine-protein kinase PAK 1 (Homo sapiens) (UniProt Q13153)", "sequence (Q13153 whole entry)": "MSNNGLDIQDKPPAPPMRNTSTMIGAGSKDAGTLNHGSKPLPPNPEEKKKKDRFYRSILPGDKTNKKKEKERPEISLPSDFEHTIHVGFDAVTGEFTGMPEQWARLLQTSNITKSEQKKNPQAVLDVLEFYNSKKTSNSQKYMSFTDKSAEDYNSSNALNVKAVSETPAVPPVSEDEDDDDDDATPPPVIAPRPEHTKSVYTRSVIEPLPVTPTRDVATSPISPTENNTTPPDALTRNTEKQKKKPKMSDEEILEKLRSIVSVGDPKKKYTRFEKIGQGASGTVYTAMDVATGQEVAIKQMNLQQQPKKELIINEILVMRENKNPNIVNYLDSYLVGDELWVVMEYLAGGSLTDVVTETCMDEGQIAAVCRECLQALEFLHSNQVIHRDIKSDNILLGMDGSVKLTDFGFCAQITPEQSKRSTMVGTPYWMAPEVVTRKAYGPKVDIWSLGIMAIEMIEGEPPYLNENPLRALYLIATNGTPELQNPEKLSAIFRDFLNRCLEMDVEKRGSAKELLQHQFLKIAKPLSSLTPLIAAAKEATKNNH", "assay": "Selectivity interaction (KinomeScan (DiscoverX)) EUB0000695a PAK1", "settings": "at 100 nM"}, "[3]": {"target": "Serine/threonine-protein kinase pim-2 (Homo sapiens, UniProt Q9P1W9)", "sequence (Q9P1W9 whole entry, looked up)": "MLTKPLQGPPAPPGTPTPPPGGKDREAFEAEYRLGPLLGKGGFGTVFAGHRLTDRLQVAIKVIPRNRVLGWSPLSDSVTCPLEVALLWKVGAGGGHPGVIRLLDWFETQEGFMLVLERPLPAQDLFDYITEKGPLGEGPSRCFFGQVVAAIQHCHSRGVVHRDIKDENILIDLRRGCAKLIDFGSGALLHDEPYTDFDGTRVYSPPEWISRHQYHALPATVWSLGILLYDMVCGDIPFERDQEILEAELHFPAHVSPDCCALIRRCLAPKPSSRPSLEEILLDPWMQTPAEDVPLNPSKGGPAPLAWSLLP", "assay": "Selectivity interaction (Kinase screening (Nanosyn)) EUB0000604a PIM2"}, "[4]": {"target": "T1, Interleukin-1 receptor-associated kinase 3 (Homo sapiens) (UniProt Q9Y616)", "T1 sequence (whole entry)": "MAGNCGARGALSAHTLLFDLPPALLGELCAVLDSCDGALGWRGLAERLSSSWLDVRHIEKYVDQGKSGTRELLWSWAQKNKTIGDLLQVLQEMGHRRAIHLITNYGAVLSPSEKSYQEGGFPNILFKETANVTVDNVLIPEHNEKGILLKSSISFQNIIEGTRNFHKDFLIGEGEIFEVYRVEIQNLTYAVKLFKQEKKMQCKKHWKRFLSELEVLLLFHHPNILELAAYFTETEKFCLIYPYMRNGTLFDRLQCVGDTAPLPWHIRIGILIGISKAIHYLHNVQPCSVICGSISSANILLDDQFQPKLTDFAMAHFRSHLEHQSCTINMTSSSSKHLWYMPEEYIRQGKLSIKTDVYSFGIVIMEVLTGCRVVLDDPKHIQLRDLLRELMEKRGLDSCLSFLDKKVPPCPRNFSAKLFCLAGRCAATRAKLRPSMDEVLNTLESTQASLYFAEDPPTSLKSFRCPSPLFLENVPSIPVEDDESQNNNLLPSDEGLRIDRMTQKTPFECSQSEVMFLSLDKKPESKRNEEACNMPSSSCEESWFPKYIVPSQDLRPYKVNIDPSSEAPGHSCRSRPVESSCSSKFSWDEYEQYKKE", "assay": "Selectivity interaction (KinomeScan (DiscoverX)) EUB0000655a IRAK3", "settings": "at 10 µM"}, "[5]": {"target": "T2, Cyclin-G-associated kinase (Homo sapiens) (UniProt O14976)", "T2 sequence (whole entry)": "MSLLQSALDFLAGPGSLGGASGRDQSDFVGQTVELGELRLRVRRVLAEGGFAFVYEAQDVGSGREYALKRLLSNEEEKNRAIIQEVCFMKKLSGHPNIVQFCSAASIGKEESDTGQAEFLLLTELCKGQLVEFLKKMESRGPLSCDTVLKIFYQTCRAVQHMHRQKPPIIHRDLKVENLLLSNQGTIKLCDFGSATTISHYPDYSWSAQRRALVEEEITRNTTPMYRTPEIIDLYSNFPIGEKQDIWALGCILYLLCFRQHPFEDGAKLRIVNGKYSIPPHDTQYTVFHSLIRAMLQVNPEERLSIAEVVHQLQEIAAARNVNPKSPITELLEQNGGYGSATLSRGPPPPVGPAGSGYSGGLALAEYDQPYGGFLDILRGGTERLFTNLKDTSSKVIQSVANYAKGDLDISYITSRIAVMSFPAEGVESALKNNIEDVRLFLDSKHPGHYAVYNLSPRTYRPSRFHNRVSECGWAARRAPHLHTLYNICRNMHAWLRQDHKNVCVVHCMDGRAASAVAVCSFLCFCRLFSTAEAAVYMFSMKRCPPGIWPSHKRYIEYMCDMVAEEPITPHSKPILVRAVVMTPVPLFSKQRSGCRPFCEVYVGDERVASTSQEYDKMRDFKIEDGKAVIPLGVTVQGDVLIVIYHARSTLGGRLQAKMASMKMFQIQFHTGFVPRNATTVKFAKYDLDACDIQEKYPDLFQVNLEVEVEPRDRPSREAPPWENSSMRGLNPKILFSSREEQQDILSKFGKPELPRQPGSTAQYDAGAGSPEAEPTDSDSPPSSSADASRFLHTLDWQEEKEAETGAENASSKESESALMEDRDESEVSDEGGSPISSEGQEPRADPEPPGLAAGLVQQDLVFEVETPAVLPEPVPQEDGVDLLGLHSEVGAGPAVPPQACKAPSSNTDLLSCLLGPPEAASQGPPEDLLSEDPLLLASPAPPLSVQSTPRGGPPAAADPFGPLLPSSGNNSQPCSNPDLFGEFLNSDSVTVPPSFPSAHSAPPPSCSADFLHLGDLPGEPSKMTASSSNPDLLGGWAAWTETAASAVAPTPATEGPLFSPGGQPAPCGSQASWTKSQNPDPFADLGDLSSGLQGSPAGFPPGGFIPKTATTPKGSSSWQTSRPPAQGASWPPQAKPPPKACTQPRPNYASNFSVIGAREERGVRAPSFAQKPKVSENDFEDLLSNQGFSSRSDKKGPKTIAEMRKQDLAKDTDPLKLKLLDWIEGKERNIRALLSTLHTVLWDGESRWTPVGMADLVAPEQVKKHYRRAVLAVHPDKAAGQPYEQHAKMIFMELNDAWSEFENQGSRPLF", "assay": "Selectivity interaction (KinomeScan (DiscoverX)) EUB0000045b GAK"}, "[6]": {"test_system": "Tyrosine-protein kinase ABL1 (Homo sapiens), P00519 [F317I]", "sequence (P00519 whole entry F317I)": "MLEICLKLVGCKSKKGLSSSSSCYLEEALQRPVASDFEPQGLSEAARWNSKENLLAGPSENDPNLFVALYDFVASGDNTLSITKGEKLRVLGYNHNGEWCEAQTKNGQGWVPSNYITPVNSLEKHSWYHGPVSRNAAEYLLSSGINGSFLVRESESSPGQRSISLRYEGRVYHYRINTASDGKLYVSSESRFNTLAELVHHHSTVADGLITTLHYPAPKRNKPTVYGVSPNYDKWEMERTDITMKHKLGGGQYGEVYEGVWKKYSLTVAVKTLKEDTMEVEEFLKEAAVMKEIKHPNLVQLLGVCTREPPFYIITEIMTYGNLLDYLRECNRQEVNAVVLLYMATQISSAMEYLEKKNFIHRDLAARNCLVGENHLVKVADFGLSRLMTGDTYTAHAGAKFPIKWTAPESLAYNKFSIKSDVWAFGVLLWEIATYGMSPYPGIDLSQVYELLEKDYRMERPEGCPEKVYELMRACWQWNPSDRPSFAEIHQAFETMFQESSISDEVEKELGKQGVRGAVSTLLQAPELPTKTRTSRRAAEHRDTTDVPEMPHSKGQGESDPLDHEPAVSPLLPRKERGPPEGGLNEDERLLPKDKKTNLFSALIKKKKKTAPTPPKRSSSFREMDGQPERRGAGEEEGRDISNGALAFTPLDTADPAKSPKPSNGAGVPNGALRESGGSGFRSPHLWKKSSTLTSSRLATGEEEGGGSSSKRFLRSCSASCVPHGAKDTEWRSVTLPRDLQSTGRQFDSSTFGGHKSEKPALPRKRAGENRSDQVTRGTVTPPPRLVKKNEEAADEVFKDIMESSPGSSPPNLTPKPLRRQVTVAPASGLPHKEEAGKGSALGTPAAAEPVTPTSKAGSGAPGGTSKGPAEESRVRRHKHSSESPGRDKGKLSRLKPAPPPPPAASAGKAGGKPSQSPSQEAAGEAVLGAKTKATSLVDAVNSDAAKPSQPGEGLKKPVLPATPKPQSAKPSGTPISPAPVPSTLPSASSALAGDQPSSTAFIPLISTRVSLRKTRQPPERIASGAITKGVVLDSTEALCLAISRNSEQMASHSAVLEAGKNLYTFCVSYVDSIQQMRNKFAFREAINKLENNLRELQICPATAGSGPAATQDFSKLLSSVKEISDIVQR", "assay": "Selectivity interaction (KinomeScan (DiscoverX)) EUB0001079a ABL1", "settings": "at 1 µM"}, "[7]": {"target": "T3, Histone-arginine methyltransferase CARM1 (Homo sapiens) (UniProt Q86X55)", "T3 sequence (whole entry)": "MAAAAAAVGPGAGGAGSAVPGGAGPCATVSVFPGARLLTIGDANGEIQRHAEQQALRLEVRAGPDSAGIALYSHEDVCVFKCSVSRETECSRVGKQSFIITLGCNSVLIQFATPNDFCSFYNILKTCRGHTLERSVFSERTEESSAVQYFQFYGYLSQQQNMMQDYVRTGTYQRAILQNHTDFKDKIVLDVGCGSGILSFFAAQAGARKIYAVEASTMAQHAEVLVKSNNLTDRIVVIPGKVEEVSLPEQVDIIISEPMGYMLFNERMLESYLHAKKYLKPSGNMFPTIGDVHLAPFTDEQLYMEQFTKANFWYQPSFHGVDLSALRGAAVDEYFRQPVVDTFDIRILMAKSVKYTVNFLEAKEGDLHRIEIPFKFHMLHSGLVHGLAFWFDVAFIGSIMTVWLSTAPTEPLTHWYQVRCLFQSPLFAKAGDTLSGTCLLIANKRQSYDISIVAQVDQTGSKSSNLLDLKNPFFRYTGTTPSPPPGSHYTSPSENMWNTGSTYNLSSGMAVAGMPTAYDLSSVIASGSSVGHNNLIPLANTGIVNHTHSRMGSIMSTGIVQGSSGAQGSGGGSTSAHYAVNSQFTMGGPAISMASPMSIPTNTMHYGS", "assay": "Selectivity interaction (Transferase panel (protein, RNA, and DNA methyltransferases. and EP300 (acetyltransferase))) EUB0000270b CARM1"}, "[8]": {"target": "Tyrosine-protein kinase receptor UFO (Homo sapiens) (UniProt P30530)", "sequence (P30530 whole entry)": "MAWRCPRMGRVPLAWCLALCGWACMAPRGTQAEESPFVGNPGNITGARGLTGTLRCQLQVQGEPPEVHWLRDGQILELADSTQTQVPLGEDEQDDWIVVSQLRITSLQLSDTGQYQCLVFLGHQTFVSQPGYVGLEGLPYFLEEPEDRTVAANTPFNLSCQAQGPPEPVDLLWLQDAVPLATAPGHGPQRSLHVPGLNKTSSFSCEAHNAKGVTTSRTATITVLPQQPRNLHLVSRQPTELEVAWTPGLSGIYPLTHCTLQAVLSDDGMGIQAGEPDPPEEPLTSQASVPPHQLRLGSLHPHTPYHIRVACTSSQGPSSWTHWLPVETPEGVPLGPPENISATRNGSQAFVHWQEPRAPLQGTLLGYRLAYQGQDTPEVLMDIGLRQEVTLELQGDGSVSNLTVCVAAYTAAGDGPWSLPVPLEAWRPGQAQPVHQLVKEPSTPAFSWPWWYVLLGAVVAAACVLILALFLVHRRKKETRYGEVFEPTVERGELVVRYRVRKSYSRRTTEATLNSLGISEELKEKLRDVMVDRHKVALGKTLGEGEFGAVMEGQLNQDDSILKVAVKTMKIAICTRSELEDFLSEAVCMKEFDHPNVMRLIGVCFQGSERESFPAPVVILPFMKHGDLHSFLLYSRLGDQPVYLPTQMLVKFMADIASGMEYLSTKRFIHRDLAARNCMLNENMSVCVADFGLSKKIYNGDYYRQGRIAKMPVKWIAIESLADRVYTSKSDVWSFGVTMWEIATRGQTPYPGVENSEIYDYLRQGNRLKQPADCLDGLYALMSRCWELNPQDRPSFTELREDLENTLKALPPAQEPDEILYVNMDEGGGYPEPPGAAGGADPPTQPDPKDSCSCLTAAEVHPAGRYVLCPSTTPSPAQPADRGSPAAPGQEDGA", "assay": "Selectivity interaction (KinomeScan (DiscoverX)) EUB0000092b AXL", "settings": "at 10 µM"}}}
{"smiles": "CCn1c(-c2nc3cc(C(=O)N4CCCC(N)C4)ccc3n2C)cc2ccccc21", "note": "(stereo not given)", "values": [{"measurement": "XC50", "setting": "[1]", "result": "> 50.1", "unit": "µM"}]}
{"smiles": "Cc1cc(F)c(C(=O)Nc2cccc(-c3nncn3C(C)C)n2)cc1-n1cnc(C2CC2)c1", "values": [{"measurement": "% of control", "setting": "[2]", "result": 100, "unit": "%"}]}
{"smiles": "Cc1cnc(Nc2ccc(F)cc2Cl)nc1-c1c[nH]c(C(=O)N[C@H](CO)c2cccc(Cl)c2)c1", "values": [{"measurement": "% of inhibition", "setting": "[3]", "result": 3, "unit": "%"}]}
{"smiles": "CN(C)CCOc1ccc(-c2nc(-c3ccncc3)c(-c3ccc4c(c3)CC/C4=N\\O)[nH]2)cc1", "values": [{"measurement": "% of control", "setting": "[4]", "result": 71, "unit": "%"}]}
{"smiles": "C=CC(=O)Nc1cc(-n2c(=O)ccc3cnc4ccc(-c5ccc(NS(C)(=O)=O)cc5)cc4c32)ccc1C", "values": [{"measurement": "% of control", "setting": "[5]; at 1 µM", "result": 74, "unit": "%"}, {"measurement": "% of control", "setting": "[5]; at 10 µM", "result": 23, "unit": "%"}]}
{"smiles": "Nc1cnc(N2CCc3cc(S(=O)(=O)Nc4c(F)cc(Cl)cc4F)cc(N4CCCC4=O)c32)nc1", "note": "[TP-020n]", "values": [{"measurement": "% of control", "setting": "[6]", "result": 100, "unit": "%"}]}
{"smiles": "Cc1cc(CN)cc(C)c1-c1ncn(C)c1-c1cncn1C", "values": [{"measurement": "% activity", "setting": "[7]; at 1 µM", "result": "> 90", "unit": "%"}, {"measurement": "% activity", "setting": "[7]; at 10 µM", "result": "> 80", "unit": "%"}]}
{"smiles": "CCC(=O)N1CCN(c2ccc(-n3c(=O)ccc4cnc5ccc(-c6cnc7ccccc7c6)cc5c43)cc2C(F)(F)F)CC1", "values": [{"measurement": "% of control", "setting": "[8]", "result": 46, "unit": "%"}]}
